Experimental data reported in patent publication US11890335B2, “ErbB peptide pharmaceutical and vaccine compositions and therapeutic uses thereof for cancer” (L2 Diagnostics, LLC, priority 2017, dated 2024).
Entries after “also recorded” stand apart in the source; their conditions may differ. *1 amine or outer side, *2 acyl side, *3 side chain or, on linkers, in order; H or OH if unused. Where a SMILES comes first, the peptide text is derived from it. [ ]: non-standard residue; d: D form. βAsp = O=C(O)[C@H](CC(=O)[*:2])N[*:1]

How the values were obtained:
[1] = target: T1, recombinant HER2 extracellular domain (Homo sapiens, UniProt P04626); assay: ELISA, immune serum binding to recombinant HER2 extracellular domain; details: serum 1:100 dilution
T1 construct: The extracellular domain of HER2 was a kind gift of Dr. Daniel Leahy
Protocol: (§1) Polystyrene microtiter plates (Nunc) were coated with either 50 μg/ml peptide or 1 μg of rHER2 or rHER3 extracellular domains in buffer (0.05 M carbonate-bicarbonate buffer, pH 9.6; Sigma) and incubated overnight at 4° C. Wells were washed, blocked with PBS containing 3% bovine serum albumin (BSA) followed by the addition of serum samples (1:100 dilution) for 2 h at room temperature. Alkaline phosphatase conjugated-goat anti-mouse IgG antibody (Southern Biotech) was added to the wells at a 1:1000 dilution and incubated at room temperature for 1.5 h. Wells were washed one last time, and developed by the addition of the substrate p-nitrophenyl phosphate (Sigma). Wells were read on a SpectraMax 450 ELISA reader (Molecular Dynamics) at 405 nm.

[2] = target: T2, recombinant HER3 extracellular domain (Homo sapiens, UniProt P21860); assay: ELISA, immune serum binding to recombinant HER3 extracellular domain; details: serum 1:100 dilution
T2 construct: Recombinant human HER3 extracellular domain was purchased from R&D Systems; purchased R&D Systems
T2 sequence (P21860 20-643 limits assumed): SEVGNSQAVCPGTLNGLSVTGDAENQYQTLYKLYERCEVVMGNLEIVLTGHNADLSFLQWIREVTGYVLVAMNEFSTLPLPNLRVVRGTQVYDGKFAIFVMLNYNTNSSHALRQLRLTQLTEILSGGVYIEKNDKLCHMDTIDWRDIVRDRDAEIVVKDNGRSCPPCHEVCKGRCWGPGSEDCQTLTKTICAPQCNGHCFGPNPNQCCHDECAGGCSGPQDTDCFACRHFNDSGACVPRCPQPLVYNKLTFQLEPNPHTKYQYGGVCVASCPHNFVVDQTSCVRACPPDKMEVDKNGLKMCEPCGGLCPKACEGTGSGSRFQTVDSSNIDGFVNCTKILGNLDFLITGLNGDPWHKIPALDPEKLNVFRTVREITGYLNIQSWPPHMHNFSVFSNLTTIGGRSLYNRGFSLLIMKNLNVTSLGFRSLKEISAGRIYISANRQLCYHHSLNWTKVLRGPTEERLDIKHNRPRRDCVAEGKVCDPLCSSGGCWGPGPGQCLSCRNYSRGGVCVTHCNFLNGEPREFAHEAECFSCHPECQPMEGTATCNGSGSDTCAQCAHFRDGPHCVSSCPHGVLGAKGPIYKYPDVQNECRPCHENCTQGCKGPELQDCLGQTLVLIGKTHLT
Protocol: as §1

HER2 p585 peptide = target: T3, HER2 p585 peptide (Homo sapiens, UniProt P04626); assay: ELISA, immune serum binding to HER2 p585 peptide; details: sera from Balb/c mice
T3 construct: host or cells: chemical synthesis
Protocol: as §1

HER3 p574 peptide = target: T4, HER3 p574 peptide (Homo sapiens, UniProt P21860); assay: ELISA, immune serum binding to HER3 p574 peptide; details: sera from Balb/c mice
T4 construct: host or cells: chemical synthesis
Protocol: as §1

HER4 p578 peptide = target: T5, HER4 p578 peptide (Homo sapiens, UniProt Q15303); assay: ELISA, immune serum binding to HER4 p578 peptide; details: data not shown
T5 construct: host or cells: chemical synthesis
Protocol: as §1

EGFR peptides = assay: ELISA, antisera against the panel of EGFR peptides; format: binding, murine (mu) and human (hu); details: 100 μg peptide in CFA, boost in IFA, sera day 28
Excerpt: (§2) Female Balb/c or female C57BL/6 mice, 6-8 weeks old, were obtained from the National Cancer Institute. All mice were housed at the Yale University School of Medicine Animal Facility. All protocols were consistent with accepted guidelines of the National Institutes of Health for the care and use of laboratory animals as well as approved by the Yale University Institutional Animal Care and Use Committee. For the generation of antibody, three to five Balb/c or C57BL/6 mice per group were immunized intraperitoneally and subcutaneously in one footpad with 100 μg of peptide emulsified 1:1 of PBS and complete Freund's adjuvant (CFA). Twenty-one days later, mice were boosted intraperitoneally and subcutaneously in the other footpad with 100 μg of immunizing peptide emulsified in incomplete Freund's adjuvant (IFA). Sera were collected via retro-orbital bleed at day 28 for antibody analyses. For T cell assays, mice were immunized by the same route of administration with 100 μg of peptide emulsified 1:1 in CFA. […]
Polystyrene microtiter plates (Nunc) were coated with either 50 μg/ml peptide or 1 μg of rHER2 or rHER3 extracellular domains in buffer (0.05 M carbonate-bicarbonate buffer, pH 9.6; Sigma) and incubated overnight at 4° C. […] Wells were read on a SpectraMax 450 ELISA reader (Molecular Dynamics) at 405 nm.

[3] = test system: T cells from EGFR p580 immunized mice; assay: T cell proliferation assay, 3H-thymidine; format: cell-based; details: lymph node cells of immunized C57BL/6 mice re-stimulated 72 h with peptide
human EGFR on A431 cells = assay: Flow cytometry, binding to A431 cells; details: for Staining of A431 cells by flow cytometry: serum 1:100 or cetuximab 5 μg/ml
Protocol: (§3) Cells (10^5 cells/sample) were stained with a 1:100 dilution of serum in PBS with 0.1% BSA and 0.05% sodium azide for 1 h at 4° C. Cells were washed and incubated with a 1:100 dilution of either anti-mouse IgG fluorescein isothiocyanate (FITC; Sigma) or anti-human IgG AlexaFluor 488 (Molecular Probes, Invitrogen) for 1 h at 4° C. Some samples were further stained using anti-FITC AlexaFluor 488. Cells were washed and fixed in PBS+1% paraformaldehyde. Cells were analyzed on a FACSCalibur (BD Biosciences) with FlowJo software (Tree Star). Controls included unstained cells and cells stained with secondary antibody alone.

[4] = test system: MDA-MB-453 cells (HER2-positive, EGFR-negative); assay: Flow cytometry, binding to MDA-MB-453 cells; set-up: species or system human; details: serum 1:100 or antibody 5 μg/ml
Protocol: as §3

TUBO-EGFR cells = assay: In vivo tumor assay, TUBO-EGFR cells s.c. in immunized mice; details: immunized Balb/c mice, days 11, 13 and 18
Excerpt: as §2
Female Balb/c mice were immunized with either Asp or isoAsp EGFR p580 as described above for the generation of antibody. […] Tumor volume was calculated by measuring three orthogonal axes (a, b, and c) with digital calipers, with the tumor volume=abc/2 (Cho H S et al. (2003) Nature 421:756-60).

A431 cells [5] = assay: ADCC assay with human PBMC, A431 cells; format: cell-based; details: 1:25 serum or 20 μg/ml antibody, human PBMC 50:1, 4 h
Protocol: (§4) All experimental sera were heat-inactivated (56° C., 30 min) prior to use. A431 or MDA-MB-453 cells were incubated with a 1:25 dilution of heat-inactivated sera or control antibody (20 μg/ml) 30 min at 37° C. in 96-well U bottom plates. Freshly isolated human peripheral blood mononuclear cells (PBMC) from healthy donors were incubated with antibody coated target cells at a 50:1 effector to target ratio for 4 h at 37° C. Fifty microliters of each cell culture supernatant was then assayed for lactate dehydrogenase released from dead cells using the CytoTox96 Non-Radioactive Cytotoxicity Assay (Promega) per manufacturer's instructions. Percent cytotoxicity was calculated as [(experimental-effector spontaneous-target spontaneous)/(target maximum-target spontaneous)]×100.

MDA-MB-453 cells [6] = assay: ADCC assay with human PBMC, MDA-MB-453 cells; format: cell-based; details: 1:25 serum or 20 μg/ml antibody, human PBMC 50:1, 4 h, compared to rituximab
Protocol: as §4

[7] = mouse, in vivo
A431 cells [8] = details: isotype control 10 μg/ml, data not shown
MDA-MB-453 cells [9] = details: control antibodies, 10-40 mg/ml concentrations tested
Protocol: Cells were incubated for three days with 1:25 dilutions of sera from either Asp or isoAsp p580 immunized Balb/c mice. Cell proliferation was measured by 3H-thymidine incorporation.

native HER2 = native HER2 (Homo sapiens, UniProt P04626); details: Garrett J T et al. (2007); cited from earlier work

Compound | Immune serum binding to HER2 extracellular domain by ELISA [1] | Immune serum binding to HER3 extracellular domain by ELISA [2] | Immune serum binding to HER2 p585 peptide by ELISA (HER2 p585 peptide) | Immune serum binding to HER3 p574 peptide by ELISA (HER3 p574 peptide) | Immune serum binding to homologous HER4 p578 peptide (HER4 p578 peptide) | Antibodies elicited by immunization, binding to EGFR peptides by ELISA (EGFR peptides) | T cell response to Asp and iso-Asp p580 [3] | Staining of A431 cells by flow cytometry (human EGFR on A431 cells) | Binding to MDA-MB-453 cells by flow cytometry [4] | Tumor size versus adjuvant alone (PBS-CFA) (TUBO-EGFR cells) | also measured
CC[C@H](C)[C@H](N)C(=O)N[C@@H](CCC(N)=O)C(=O)N[C@@H](CS)C(=O)N[C@@H](C)C(=O)N[C@@H](Cc1c[nH]cn1)C(=O)N[C@@H](Cc1ccc(O)cc1)C(=O)N[C@H](C(=O)N[C@@H](CC(=O)O)C(=O)NCC(=O)N1CCC[C@H]1C(=O)N[C@@H](Cc1c[nH]cn1)C(=O)N[C@@H](CS)C(=O)N[C@H](C(=O)N[C@@H](CCCCN)C(=O)N[C@H](C(=O)N[C@@H](CS)C(=O)N1CCC[C@H]1C(=O)N[C@@H](C)C(=O)NCC(=O)O)[C@@H](C)O)C(C)C)[C@@H](C)CC [Asp EGFR p580] (H-IQCAHYIDGPHCVKTCPAG-OH; N-terminus and C-terminus assumed) | bound | bound | bound | bound | neither Asp nor isoAsp EGFR p580 antisera bound; also recorded: neither the Asp nor iso-Asp EGFR p580 antiserum bound | generated antibodies against Asp and iso-Asp p580, as well as Asp and iso-Asp p572 and Asp p596 | strong T cell responses to both Asp and iso-Asp p580 | stained A431 cells above that seen with pre-immune sera | showed affinity | significantly smaller tumors | –
CC[C@H](C)[C@H](N)C(=O)N[C@@H](CCC(N)=O)C(=O)N[C@@H](CS)C(=O)N[C@@H](C)C(=O)N[C@@H](Cc1c[nH]cn1)C(=O)N[C@@H](Cc1ccc(O)cc1)C(=O)N[C@H](C(=O)N[C@@H](CC(=O)NCC(=O)N1CCC[C@H]1C(=O)N[C@@H](Cc1c[nH]cn1)C(=O)N[C@@H](CS)C(=O)N[C@H](C(=O)N[C@@H](CCCCN)C(=O)N[C@H](C(=O)N[C@@H](CS)C(=O)N1CCC[C@H]1C(=O)N[C@@H](C)C(=O)NCC(=O)O)[C@@H](C)O)C(C)C)C(=O)O)[C@@H](C)CC [isoAsp EGFR p580] (H-IQCAHYI[βAsp]GPHCVKTCPAG-OH; N-terminus and C-terminus assumed) | bound | bound | bound | bound | neither Asp nor isoAsp EGFR p580 antisera bound | sera bound strongly to both isoforms of p572 and Asp 596 | more robust response | – | showed affinity | significantly smaller tumors | Immune serum binding to homologous HER4 p578 peptide (HER4 p578 peptide; listed as iso-Asp EGFR p580): neither the Asp nor iso-Asp EGFR p580 antiserum bound; Binding to A431 cells relative to Asp-isoform counterpart (human EGFR on A431 cells; flow cytometry): ~10 fold; Shift in staining intensity of A431 cells (human EGFR on A431 cells; immune sera, flow cytometry): > 10 fold
IQCAHYIDGPHCVKTCPAG [EGFR p580] | – | – | – | – | – | – | – | bind to the EGFR overexpressing human A431 epidermoid carcinoma cell line at an epitope distinct from that recognized by cetuximab | – | – | ADCC killing of A431 cells (A431 cells [5]): exhibited significant killing; ADCC killing of MDA-MB-453 cells (MDA-MB-453 cells [6]): significantly induced ADCC killing; Autoimmunity, fur loss or skin pathology in immunized mice [7]: no signs of aberrant tissue autoimmunity
Rituximab: human anti-CD20 monoclonal antibody | – | – | – | – | – | – | – | – | – | – | A431 cell growth inhibition (A431 cells [8]): did not inhibit any A431 growth; MDA-MB-453 cell growth inhibition (MDA-MB-453 cells [9]): failed to inhibit
VACAHYKDPPFCVA [p585-598 HER2 peptide] | – | – | – | – | – | – | – | – | – | – | Elicited antibodies binding to native HER2 (native HER2): failed to elicit antibodies that bound strongly to native HER2
